Values of other authors in patent US12295916B2, “Process for making aqueous therapeutic particle having stable exterior water clustering with nanosized thickness” (priority 2019, dated 2025).

Details: given by injection

Compound: CNC1(c2ccccc2Cl)CCCCC1=O (centres unmarked) [Ketamine]
- duration of effects: ≤ 25 min
- time to begin of effects: five
